{"source": "paper PMC12567141", "about": "“Design, Synthesis and Biological Evaluation of Pyrazolopyrimidine Derivatives as Aryl Hydrocarbon Receptor Antagonists for Colorectal Cancer Immunotherapy” (Pharmaceutics, 2025)", "key": {"HCT-116 cells": {"system": "HCT-116 cells", "test": "Clonogenic assay", "assay_type": "cell-based", "conditions": "colorectal cancer cells vs vehicle-treated cells", "description": "Cells were plated into 6-well plates and left for 48 h. After treatment with 5, 10 μM 7k for 24 h, the drug-containing medium was discarded, and cells were washed twice with PBS and left in complete culture medium for the time corresponding to six doublings. Finally, cells were fixed in 4% Paraformaldehyde (PFA) solution and stained with 0.05% crystal violet."}, "MC38 tumor": {"system": "MC38 tumor", "test": "In vivo therapy, MC38 syngeneic model", "parameters": "species or system mice", "description": "In vivo experiments were conducted using 6-week-old male immunocompetent BALB/c and C57BL/6 with 18–20 g body weight (Orient Bio Inc., Seungnam, Republic of Korea). All animal experimental procedures were maintained and used in accordance with the Guidelines for the Care and Use of Laboratory Animals of the Institute of Laboratory Animal Center, Daegu-Gyeongbuk Medical Innovation Foundation (K-MEDI hub). The animal studies were conducted after approval by the institutional reviewer board on the Ethics of Animal Experiments of the Daegu-Gyeongbuk Medical Innovation Foundation (approval number: KMEDI-24041103-01).\nStudy 1: Antitumor activity of 7k alone in mice with either CT26 syngeneic model or MC38 syngeneic model. Mice were subcutaneously challenged with 5 × 10^5 either MC38 or CT26 cells. […]\nThe 7k was dissolved in solution including 5% DMSO, 55% DW, and 40% PEG. Tumor size was measured with a caliper at the indicated time points, and tumor volume (mm^3) was calculated using the following formula, tumor volume (mm^3) = d2 × D/2, where d and D are the shortest and longest diameters in mm, respectively."}, "MC38 and CT26 cells [1]": {"system": "MC38 and CT26 cells", "test": "Cell-cycle analysis by flow cytometry", "assay_type": "cell-based", "conditions": "24 h treatment", "description": "Washed and fixed cells were stained in the dark with 0.5 mL propidium iodide/RNase staining buffer for 15 min at room temperature. DNA content, cell-cycle profiles, and forward scatter were analyzed using a Becton Dickinson LSRFortessa^TM (BD Diagnostics, San Jose, CA, USA) with emission detection at 488 nm (excitation) and 575 nm (peak emission). Data were analyzed using FlowJo (BD biosciences, San Jose, CA. USA)."}, "[2]": {"system": "AhR, AhRR, and IDO-1 mRNA expression in MC38 and CT26 cells", "test": "qRT-PCR of AhR downstream genes in kynurenine-stimulated cells", "assay_type": "cell-based", "conditions": "200 μM kynurenine-stimulated MC38 and CT26 cells, 24 h, qPCR", "description": "MC38 and CT26 were treated with different concentrations of 7k and 200 μM Kynurenine for 24 h. RNA from treated cells was extracted and cDNA was synthesized using the ReverTraAce™ qPCR RT Kit (TOYOBO, Osaka, Japan), followed by evaluation of AhR, AhRR, and IDO-1 mRNA expression with quantitative real-time PCR. PCR conditions were 95 °C preincubation, maintained for 1 min, and then 1 cycle of 95 °C denaturation for 15 s, 55 °C annealing for 15 s, and 72 °C polymerization for 45 s. A total of 40 cycles were repeated. Advanced Relative Quantification analysis was used to confirm the structure of the expected quantitative real-time PCR product, and the variability of other gene amplification was calibrated by relative comparison with GAPDH expression (Table 1)."}, "[3]": {"system": "CD8+ IFNγ + T lymphocytes", "test": "Flow cytometry of CD8+ IFNγ+ T lymphocytes in splenocytes of tumour-bearing mice", "assay_type": "in vivo", "conditions": "vs vehicle or single therapy", "description": "For analysis of CD8+ IFNγ + T lymphocytes, splenocytes were collected from tumour-bearing mice and stimulated with a cell activation cocktail (BioLegend, San Diego, CA, USA) in the presence of Brefeldin A for 6 h. Splenocytes were stained with APC-conjugated CD8 and APC-Cy7-conjugated IFNγ Ab at 4 °C for 30 min (BioLegend). After washing with FACS buffer (Biolegend) three times, the cells were analysed using Becton Dickinson LSRFortessa^TM and analyzed with FlowJo software. Isotype-matched monoclonal antibodies were used as controls. The data were analysed using Flowjo analysis software v11. (Flowjo LLC, Ashland, OR, USA)."}, "[4]": {"system": "normal cells (CHO, L929, CCD-18Co)", "test": "Cell viability assay (CCK-8), normal cells", "assay_type": "cell-based", "conditions": "24 h, 7k: CHO, SR-1: CCD-18Co", "description": "Chinese hamster ovary CHO cells, mouse fibroblast L929 cells, normal colon CCD18-Co cells, monkey kidney fibroblast COS-7 cells, colorectal cancer cells including HCT-116, RKO, SW480, SW620, CT26, and MC38 cells were purchased from ATCC (American Type Culture Collection). CHO, L929, Cos-7, and all cancer cells were maintained in RPMI 1640 or DMEM supplemented with 10% FBS (Gibco FBS; Thermo Fisher Scientific, Hanover Park, IL, USA) and 1% streptomycin/penicillin. CCD18-Co cells were cultured in high-glucose Dulbecco modified Eagle medium containing 10% FBS and 1% streptomycin/penicillin. All cells were grown in 5% CO2 at 37 °C. Mycoplasma testing was regularly performed every month using the BioMycoX Mycoplasma PCR Detection Kit (CellSafe, Yongin, Republic of Korea).\nCell viability was analyzed using a Cell Counting Kit-8 (Dojindo molecular technologies, Rockville, MD, USA). Cells were seeded in 96-well plates and treated with different concentrations of 7k. At the indicated time points, CCK-8 (10 μL/well) reagents were added to the cells, followed by further incubation at 37 °C for 90 min. The absorbance at 450 nm was measured using a plate reader (BioTek instruments, Winooski, VT, USA)."}, "[5]": {"test": "Pharmacokinetic study in mouse", "assay_type": "in vivo, ICR mice", "conditions": "male, ICR, plasma", "description": "To estimate the pharmacokinetic parameters in animals, the drug was administered via intravenous (I.V., 5 mg/kg) and oral (P.O., 10 mg/kg) routes in seven-week-old male ICR mice (Orient Bio Inc., Seongnam, Korea). Blood samples were collected at 0.083 (for I.V.), 0.5, 1, 2, 4, 8, and 24 h after drug administrations and then immediately centrifuged at 10,000× g for 3 min. The plasma concentrations of the drug were determined via LC-MS/MS. The plasma concentration–time profiles and pharmacokinetic parameters were estimated using the non-compartmental method with the nonlinear least squares regression program WinNonlin 5.3 (Pharsight, Mountain View, CA, USA)."}, "MC38 and CT26 cells [6]": {"system": "MC38 and CT26 cells", "test": "Apoptosis analysis (Annexin V / propidium iodide)", "assay_type": "cell-based", "conditions": "24 h treatment", "description": "Cells were washed with PBS containing 1% horse serum and stained with the FITC-Annexin V Apoptosis Detection Kit I (BD Biosciences) at room temperature for 30 min in the dark. DNA content, cell-cycle profiles, and forward scatter profiles were determined using the Becton Dickinson LSRFortessa^TM and analyzed with FlowJo software v11."}}, "data": [{"compound": "CC(C)n1cc2nc(-c3cc(F)cc(F)c3)nc(NCCc3c[nH]c4ccccc34)c2n1", "note": "[Compound 7k, N-(2-(1H-indol-3-yl)ethyl)-5-(3,5-difluorophenyl)-2-isopropyl-2H-pyrazolo [4,3-d]pyrimidin-7-amine]", "values": [{"measurement": "colony formation ability", "setting": "HCT-116 cells", "result": "significant decrease in the colony formation ability"}, {"measurement": "tumor growth inhibition (TGI)", "setting": "MC38 tumor; MC38 model, combination study, 7k oral daily 20 days, anti-PD1 i.p. every three days four times", "result": 45, "unit": "%"}, {"measurement": "tumor growth inhibition (TGI)", "setting": "MC38 tumor; MC38 model, comparison of 7k and 3′,4′-dimethoxyflavone, 10 mg/kg oral once a day, 18 days", "result": 51, "unit": "%"}, {"measurement": "tumor weight", "setting": "MC38 tumor; MC38 tumor bearing mice, vs vehicle-treated mice (Figure S5)", "result": "significantly lower"}, {"measurement": "tumor growth inhibition (TGI)", "setting": "MC38 tumor; MC38 tumor-bearing mice, single agent, 10 mg/kg oral once a day for 14 days", "result": 49, "unit": "%"}, {"measurement": "sub-G1 fraction", "setting": "MC38 and CT26 cells [1]", "result": "dose-dependent increase in the sub-G1 fraction"}, {"measurement": "expression levels of AhR, AhRR, and IDO-1", "setting": "[2]", "result": "reduced the expression levels of AhR, AhRR, and IDO-1"}, {"measurement": "levels of CD8+ IFNγ T lymphocytes", "setting": "[3]", "result": "increased the levels of CD8+ IFNγ T lymphocytes"}, {"measurement": "cell viability of normal cells", "setting": "[4]", "result": "few antiproliferative effects"}, {"measurement": "AUC(0-inf)", "setting": "[5]; IV, 5 mg/kg", "result": 5860, "unit": "ng·h/mL"}, {"measurement": "AUC(0-t)", "setting": "[5]; IV, 5 mg/kg", "result": "5750 ± 740", "unit": "ng·h/mL"}, {"measurement": "clearance", "setting": "[5]; IV, 5 mg/kg", "result": 14.3, "unit": "mL/min/kg"}, {"measurement": "half-life", "setting": "[5]; IV, 5 mg/kg", "result": 4.54, "unit": "h"}, {"measurement": "Vd", "setting": "[5]; IV, 5 mg/kg, read-out: Vss (converted)", "result": 3.91, "unit": "L/kg"}, {"measurement": "AUC(0-inf)", "setting": "[5]; PO, 10 mg/kg", "result": 8230, "unit": "ng·h/mL"}, {"measurement": "AUC(0-t)", "setting": "[5]; PO, 10 mg/kg", "result": "8160 ± 3670", "unit": "ng·h/mL"}, {"measurement": "Cmax", "setting": "[5]; PO, 10 mg/kg", "result": 2380, "unit": "ng/mL"}, {"measurement": "Tmax", "setting": "[5]; PO, 10 mg/kg", "result": "0.67 ± 0.29", "unit": "h"}, {"measurement": "half-life", "setting": "[5]; PO, 10 mg/kg", "result": 3.77, "unit": "h"}, {"measurement": "bioavailability", "setting": "[5]; PO, 10 mg/kg, read-out: Ft (%) bioavailability (converted)", "result": 71, "unit": "%"}, {"measurement": "apoptosis", "setting": "MC38 and CT26 cells [6]", "result": "increase in apoptosis"}]}]}
